Laboratory results from the METLIN SMRT retention time set (Domingo-Almenara et al. 2019).

experiment: gradient 5% acetonitrile 3 min, to 50% in 2 min, to 85% in 15 min, held 3 min, 100 µL/min; conditions: column: Zorbax Extend-C18 2.1 x 50 mm; eluents: water / acetonitrile, 0.1% formic acid
How it was run: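 Mixtures of ~100 pure standards were chromatographed on a Zorbax Extend-C18 column (2.1 × 50 mm, 1.8 μm) at 100 μL/min using water and acetonitrile, each with 0.1% formic acid. Detection used a quadrupole time-of-flight mass spectrometer in positive and negative ionization mode, and data collection spanned 3 months. Retention time was obtained from adduct peaks picked computationally and each checked manually.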

Row | SMILES | RP-LC retention time [s]
1 | CCCn1cc(CCNC(=O)c2ccc(Br)cc2)c2cccnc21 | 832
2 | Cc1ccc(-c2nc3ncccn3c2Nc2ccccc2)cc1 | 714
3 | O=C(Nc1ccc2c(c1)OCO2)C1CCN(C(=O)c2ccccc2F)CC1 | 741
4 | CCc1ccc(-c2cc(C(F)(F)F)on2)cc1S(=O)(=O)N1CCN(c2ccccn2)CC1 | 933
5 | Cc1ccc2c(c1)N(S(C)(=O)=O)CCC(C(=O)NC1CCCCCCC1)O2 (stereo not given) | 1050
6 | CN1C(=O)c2cc(S(=O)(=O)Nc3ccc4c(c3)OCCO4)ccc2Oc2cccnc21 | 826
7 | COc1ccc(C2CC(=O)N(c3ccc(C)c(Cl)c3)C(=O)C2)cc1 | 1010
8 | O=C(NCc1ccc(Cl)cc1)C1CCN(c2ccc(SCc3ccccc3)nn2)CC1 | 824
9 | C=CCn1c(=O)c2ccccc2n(Cc2nc(-c3ccccc3OC)no2)c1=O | 940
10 | COc1cc(N2C=C(C#N)S(=O)(=O)c3c(F)cccc32)cc(OC)c1OC | 857
11 | CC(C)(C)C(O)CCNC(=O)C(=O)Nc1cccc(N2CCCCC2=O)c1 (stereo not given) | 650
12 | COc1cccc(C(=O)NC2(C(F)(F)F)C(=O)N(C3CCCCC3)C(C)=C2C(C)=O)c1 (stereo not given) | 987
13 | O=C(NCCC1CCN(C(=O)Nc2ccc(F)cc2F)CC1)C1CCCC1 | 777
14 | COC(=O)c1ccc(NC(=O)C2=Cc3ccccc3OC=C2)cc1 | 1060
15 | CSc1ccc(-c2nc3cnccn3c2Nc2ccc(F)cc2)cc1 | 927
16 | CCCn1cc(CCNC(=O)Nc2cccc(Br)c2)c2cccnc21 | 865
17 | O=C(/C=C/c1ccccc1)NC(Cc1ccccc1)C(=O)N1CCN(c2ccccn2)CC1 (stereo not given) | 692
18 | CC(=O)N1CCc2sc(C(=O)NC(C)c3ccccc3)cc2C1 (stereo not given) | 708
19 | Cn1c(=O)c2c(ncn2CCCNCC(O)c2cc(O)cc(O)c2)n(C)c1=O (stereo not given) | 952
20 | CCc1ccc(S(=O)(=O)Nc2ccc3nc(N4CCN(CC)CC4)cc(C(=O)O)c3c2)cc1 | 610
21 | Cc1ccc(C)c(N2CCN(C(=O)C3CCN(C(=O)C4Sc5ccccc5NC4=O)CC3)CC2)c1 (stereo not given) | 944
22 | Fc1ccc(CNc2ccc(-c3nc(-c4ccc(F)cc4)no3)cn2)cc1 | 1220
23 | Cc1ccc(N2C=NS(=O)(=O)c3cccnc32)c(F)c1 | 801

Row | SMILES | RP-LC retention time [s]
24 | O=C(c1cnccn1)N1CCCC1c1nc(CCOCC2CC2)no1 (stereo not given) | 698
25 | O=C(Cc1csc(Nc2ncccn2)n1)Nc1ccc2c(c1)Cc1ccccc1-2 | 845
26 | COC(=O)c1ccsc1NC(=O)CCS(=O)(=O)c1ccccc1 | 788
27 | CCc1ccc(CNC(=O)CN2CCc3ccccc3C2C(=O)N2CCCCC2)cc1 (stereo not given) | 965
28 | Cc1ccc(S(=O)(=O)N2CCCCC2)cc1-c1nnc(-c2ccccc2Cl)o1 | 1160
29 | Cc1cc(N2CCOCC2)nc(N2CCN(C(=O)c3cccc(Br)c3)CC2)n1 | 636
30 | CC(C)C(=O)Nc1ccc(C2(C(=O)NCc3ccccn3)CCC2)cc1 | 611
31 | OC1(c2ccccn2)CCOC2(CCN(Cc3cccc(F)c3F)CC2)C1 (stereo not given) | 571
32 | COc1ccccc1N1CCN(c2cc(SCC(=O)NCCCc3ccccc3)ncn2)CC1 | 959
33 | Cc1nc(C(=O)NCCCOC(C)C)c(C)n1C1CCN(C)CC1 | 547
34 | CCc1nc(-c2ccc3c(c2)CCN3C(=O)c2ccco2)no1 | 914
35 | CC(C)CN1CCn2cc(S(=O)(=O)Nc3ccc(F)cc3)cc2C1=O | 1020
36 | COc1ccc(-c2nc(-c3cn(-c4ccc(C)cc4)nn3)no2)c(OC)c1 | 1050
37 | CCCCc1ccc(NC(=O)CSc2cc(N3CCC(C(=O)NCCC)CC3)ncn2)cc1 | 967
38 | COc1ccc(C(=O)N2CCC(COc3ccc(C(=O)NC4CC4)cc3)CC2)c(C)c1 | 808
39 | CCOC(=O)c1c(C)oc2nc(C)nc(NCc3ccc(OC)cc3)c12 | 1080
40 | O=C(NCCCN1CCCC1)c1cc(-c2cccnc2)nc2ccccc12 | 562
41 | CCNC(=O)N1CCCC(c2nn(C)c(=O)n2C2CCCC2)C1 (stereo not given) | 630
42 | CCN1C(=O)c2ccccc2Oc2ccc(C(=O)NCc3ccc4c(c3)OCO4)cc21 | 1170
43 | COC(=O)c1cc2n(n1)CC(C)(C(=O)NC1CCCCC1)N(c1cccc(F)c1)C2=O (stereo not given) | 737
44 | Cc1cc(C)cc(C(=O)N2CCC3(CC2)NC(=O)c2cc(F)ccc2N3C)c1 | 787
45 | Cc1nc(-c2csc(S(=O)(=O)N3CCCC(C(=O)NCc4cccs4)C3)c2)no1 (stereo not given) | 847
46 | N#Cc1ccccc1NC(=O)C(=O)NCc1ccccn1 | 572

Row | SMILES | RP-LC retention time [s]
47 | CCN1CCn2cc(S(=O)(=O)Nc3cc(OC)ccc3OC)cc2C1=O | 719
48 | O=C(NCCOc1ccc(F)cc1)C1CCCN(c2ccc(-c3cccs3)nn2)C1 (stereo not given) | 702
49 | Clc1ccccc1/C=C/c1ccnc2ccccc12 | 910
50 | CCCN1C(=O)COc2ccc(-c3noc(COc4cccc(C)c4)n3)cc21 | 1170
51 | Cc1nc(-c2ccccc2)cc2nn(CC(=O)N3CCC(C)CC3)c(=O)n12 | 903
52 | Cc1ccc(C)c(NC(=O)N2CCC(n3cnnc3C3CC3)C2)c1 (stereo not given) | 634
53 | COc1ccc(-n2c(=O)n(C)c(=O)c3cc(C(=O)Nc4ccc(Cl)cc4)cnc32)cc1 | 966
54 | CCOc1ccc(C(=O)NC2(c3nc(C)no3)CCCCC2)cc1OCC | 903
55 | CCN1CCC2(CC1)OC(=O)C(C)=C2C(=O)NCCc1ccccc1 | 617
56 | O=C(NC1CCCC1)C1CCCN(S(=O)(=O)c2cc(-c3noc(C4CCCC4)n3)cs2)C1 (stereo not given) | 1120
57 | O=C(c1cnccn1)N1CC(F)(F)C[C@H]1c1nc(C2CC2)no1 | 746
58 | CC(C)NC(=O)N1CCCC(c2cccc(C(=O)NCc3ccccc3Cl)c2)C1 (stereo not given) | 909
59 | Cn1nnc2c(N3CCN(S(=O)(=O)c4cccs4)CC3)ncnc21 | 726
60 | CN(C)S(=O)(=O)N1CCCC(c2nc(-c3cccnc3)no2)CCNC(=O)CC1 (stereo not given) | 641
61 | O=S(=O)(c1cccc2nsnc12)N1CCC(Cc2nc(-c3cccnc3)n[nH]2)C1 (stereo not given) | 633
62 | CCCCc1c(C)n(CC(=O)NCC2CCCO2)c2nc(-c3ccccc3)nn2c1=O (stereo not given) | 831
63 | CCOC(=O)c1c(C)oc2nc(C)nc(NCc3ccc4c(c3)OCO4)c12 | 1100
64 | O=C1NC2(CCN(C(=O)c3ccccc3)CC2)N=C1c1cccc(Cl)c1 | 869
65 | CN1C(=O)NC2(CCN(S(=O)(=O)c3cccnc3)CC2)C1=O | 589
66 | COc1ncc(C(=O)NCc2ccccc2C(F)(F)F)cn1 | 783
67 | CCOc1cccc(CNC(=O)CCc2nnc3c4cc(-c5ccccc5)nn4ccn23)c1 | 766
68 | O=C(NCc1csc(-c2ccccc2)n1)C1CCN(C(=O)c2ccc(F)c(F)c2)CC1 | 814
69 | CC(C)NC(=O)c1ccc(OCC2CCCN(C(=O)Cc3cccc(F)c3)C2)cc1 (stereo not given) | 955

Row | SMILES | RP-LC retention time [s]
70 | Cc1cccc(NC(=O)N2CCC(n3cnc4c(Cl)cccc4c3=O)CC2)c1 | 877
71 | CCSc1ccccc1C(=O)NCc1cc(-c2ccccc2)on1 | 864
72 | CN(C)c1ccc(C(CNC(=O)c2cccs2)N(C)C)cc1 (stereo not given) | 618
73 | Cc1ccc(C)c(NC(=O)c2cc(C)n3nc(C)cc3n2)c1 | 1090
74 | CS(=O)(=O)c1ccc(CC(=O)N2CCN(c3ccc(=O)n(-c4ccc(Cl)cc4)n3)CC2)cc1 | 739
75 | Cc1cc(C(=O)NCC2CCN(C(=O)Nc3ccc(F)cc3)CC2)c(C)o1 | 750
76 | Cc1cc(C(=O)Nc2ccc(F)c(F)c2)nc2cc(-c3ccco3)nn12 | 810
77 | Cc1cc(OC(C)C(=O)N[C@@H](C)C(=O)O)c2c3c(c(=O)oc2c1)CCCC3 (stereo not given in full) | 767
78 | CN1CCCc2cc(C(=O)NCc3cccnc3)sc21 | 592
79 | O=C(Nc1ccc(F)cc1)C1CCCN(S(=O)(=O)c2cc(-c3noc(C4CCC4)n3)cs2)C1 (stereo not given) | 1160
80 | CCOc1ccc(-n2cc(C(=O)O)nn2)cc1 | 686
81 | Cc1ccc(C)c(N2CCN(c3ccnc(SCC(=O)NCc4ccccc4)n3)CC2)c1 | 858
82 | COCC(=O)N(C1CCOCC1)C1CCN(C(=O)Cc2ccc(Cl)cc2)CC1 | 618
83 | Cc1nn(-c2ccccc2)c(C)c1C=NN1CCN(Cc2ccccc2)CC1 | 739
84 | O=c1ccc(-c2ccc3c(c2)OCO3)nn1CCc1nc(-c2ccc(Cl)cc2)no1 | 1040
85 | COc1ccc(CN2C[C@@H](CO)[C@H](c3ccncc3)C2)cc1C | 542
86 | O=C(COc1ccccc1)N1CC(n2cc(COCC3CC3)nn2)C1 | 717
87 | Fc1cccc(CSc2ccc(-n3ccnc3)nn2)c1 | 604
88 | O=C(Nc1ccc(C(=O)N2CCCCC2)c(N2CCCCCC2)c1)C1CC1 | 866
89 | CN1C(=O)C2CCCCN2c2ccc(C(=O)NCCCc3ccccc3)cc21 (stereo not given) | 939
90 | O=C(Cn1nc(C(=O)N2CCCCC2)c2ccccc21)Nc1nc2ccc(Cl)cc2s1 | 969
